This is an account of results in patent US6924314B2, “Compounds for the treatment of metabolic disorders” (Wellstat Therapeutics Corporation, priority 2001, dated 2005).

Experiment [1] deals with mice with severe insulin-dependent diabetes. Briefly: Mortality in severe insulin-dependent diabetes (multiple high doses of STZ). Format: in vivo. The following applies: STZ 75 mg/kg i.p. x5 balb/C mice, 30 mg/kg/day oral, after three weeks of daily treatment. The procedure: Female balb/C mice (19 wks of age at start of experiment) were challenged with multiple high doses of STZ (75 mg/kg i.p. on 5 consecutive days). Animals were then divided in two groups (20 mice/group) matched for severity of diabetes. Four days after the last dose of STZ, treatments were initiated. One group received Vehicle (0.4 ml of 0.75% HPMC, p.o.), and the other group received oral COMPOUND AA (30 mg/kg/day). After three weeks of daily treatment, cumulative mortality in the Vehicle Control group was 19/20 mice. In contrast, only 5/20 of the COMPOUND AA mice died during this time.

In experiment [2] the test system is ob/ob obese diabetic mice. Kind of experiment: Acute hypoglycemic effect in ob/ob obese diabetic mice: Experiment 1. In kind it is in vivo. The following applies: single oral dose by gavage, 6 hours. As for the experimental part: Male ob/ob diabetic mice were randomized into groups of five animals each. Body weights were 50-55 g and blood glucose was approximately 300 mg/dL in the fed state. A single oral dose of a test substance suspended in 0.5% carboxymethylcellulose vehicle was administered by gavage. Blood glucose was measured in blood droplets obtained by nicking a tail vein with a razor using glucometer test strips and a Glucometer Elite XL device (Bayer) at 0, 0.5, 2, 4, 6 and 18 hours after the initial dosing. A 10% reduction in blood glucose versus oral vehicle is considered a positive screening result. Blood glucose reductions were generally maximal at 6 hours after drug administration.

For the next experiment, the system named is NOD mice. Briefly: Incidence of spontaneous diabetes and mortality in NOD mice. Format: in vivo. Particulars: 200 mg/kg/day oral, seven months. The procedure:
A substantial proportion of NOD (“non-obese diabetic”) mice develop insulin-dependent diabetes as a consequence of spontaneous autoimmune destruction of pancreatic islet cells. Two groups of 20 NOD mice (6 weeks old) were treated daily with either oral Vehicle (0.4 ml of 0.75% hydroxypropyl methylcellulose in water; HPMC) or Compound AH (200 mg/kg/day) suspended in HPMC. The incidence of mortality due to spontaneous development of severe insulin-dependent diabetes was monitored over a period of seven months. At the end of this time, 13/20 mice treated with vehicle had died of uncontrolled diabetes, whereas only 5/20 mice treated with Compound AH had died.

Experiment [3] has as its system streptozotocin diabetic mice. Kind of experiment: Serum chemistries and body weights in streptozotocin diabetic mice treated with oral Compound AH for 14 weeks. In kind it is in vivo, Balb/C mice. As for the experimental part:
Streptozotocin (STZ) is a toxin that selectively destroys insulin-producing pancreatic beta cells, and is widely used to induce insulin-dependent diabetes in experimental animals.
Female Balb/C mice (8 weeks old; 18-20 grams body weight) were treated with streptozotocin (STZ) (50 mg/kg i.p. on each of five consecutive days). Fourteen days after the last dose of STZ, blood glucose was measured to verify that the animals were diabetic, and the mice were divided into two groups of 5 animals each, one group receiving Compound AH (250 mg/kg) daily by oral gavage, and the other receiving vehicle (0.75% hydroxypropylmethylcellulose, a suspending agent, in water). […] Blood samples were taken periodically for determination of blood glucose concentrations, and body weights were also recorded.
Body weights and blood glucose, triglyceride and cholesterol concentrations 14 weeks after the beginning of drug treatment are shown in Table 1.

Experiment [4] concerns mice with lethal insulin-dependent diabetes. Kind of experiment: Survival of mice with lethal insulin-dependent diabetes (single dose streptozotocin). The following applies: 250 mg/kg/day oral gavage. In kind it is in vivo, Balb/C mice. As for the experimental part:
Female Balb/C mice (14 weeks old) were treated with a single dose of streptozotocin (175 mg/kg i.p.) to induce severe insulin-dependent diabetes. Seven days later, mice were divided into three treatment groups: Compound AH, pioglitazone, and vehicle. Mice were treated daily via oral gavage, and survival was monitored over time.

The mark [5] stands for this setting: streptozotocin diabetic Balb/C mice, 250 mg/kg daily oral gavage, 14 weeks.

For the compound `O=C(O)CCC(=O)c1ccc(OCc2ccccc2F)cc1` [Compound AA, 4-(4-(2-Fluorobenzyloxy)phenyl)-4-oxobutyric acid], the cumulative mortality in experiment [1] is given as 5/20. In experiment [2], the “% Reduction vs Control” value is listed as −18.5 ± 8.4% and the “Blood Glucose after 6 hours” value was found to be 242 ± 25 mg/dL.
For the compound `O=C(O)CCC(=O)c1ccc(OCc2c(F)cccc2F)cc1` [Compound AH, 4-(4-(2,6-Difluorobenzyloxy)phenyl)-4-oxobutyric acid], in the experiment on NOD mice, the “mortality due to spontaneous severe insulin-dependent diabetes” value was 5/20. Moreover, the blood glucose concentrations entry in experiment [3] (250 mg/kg daily oral, after several weeks of treatment) was “began to decrease toward baseline”. In addition, the “metabolic abnormalities associated with insulin-dependent diabetes” value in experiment [3] (oral treatment, 250 mg/kg daily) is “significant amelioration”. Moreover, in experiment [3] (setting [5]), the “Body Weight” value was found to be 21.7 ± 0.8 g, the Cholesterol came out at 82 ± 2 mg/dL, the Glucose is listed as 207 ± 12 mg/dL and the Triglycerides amounted to 62 ± 7 mg/dL. Also, the “body weights of survivors at 12 weeks” value in experiment [4] is “recovered and were maintained in the normal range”. In addition, the “Survivors (Survival at 12 weeks)” value in experiment [4] (STZ 175 mg/kg i.p. Balb/C mice) is 4/5. Moreover, in experiment [2], the “% Reduction vs Control” value is −24.9 ± 3.7% and the “Blood Glucose after 6 hours” value was 223 ± 11 mg/dL.
